In assay [1] the test system is Cavia porcellus. Kind of assay: In vivo inhibition of antigen induced increase in intranasal pressure in actively sensitized guinea pig after dose of 10 mg/kg. It counts as functional. Particulars: for inhibition in vivo at 10 mg/kg: Cavia porcellus.
For assay [2], the system named is Cavia porcellus. The experiment in a line: In vivo inhibition of antigen induced increase in intranasal pressure in actively sensitized guinea pig after an intravenous dose of 1 mg/kg. It counts as functional.
Assay [3] has as its target T1, Prostaglandin D2 receptor (Homo sapiens, UniProt Q13258).
T1 sequence (Q13258 whole entry): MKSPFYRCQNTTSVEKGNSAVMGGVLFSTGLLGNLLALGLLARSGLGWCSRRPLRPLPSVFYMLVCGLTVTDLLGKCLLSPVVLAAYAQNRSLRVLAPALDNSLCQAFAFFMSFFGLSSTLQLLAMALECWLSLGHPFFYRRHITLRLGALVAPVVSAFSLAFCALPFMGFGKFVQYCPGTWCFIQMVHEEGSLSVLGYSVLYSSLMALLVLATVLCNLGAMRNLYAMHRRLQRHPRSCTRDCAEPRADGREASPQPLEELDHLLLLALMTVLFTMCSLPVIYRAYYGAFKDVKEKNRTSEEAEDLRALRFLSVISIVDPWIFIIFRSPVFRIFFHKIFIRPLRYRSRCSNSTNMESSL
The experiment in a line: In vitro inhibition of [3H]- PGD-2 radioligand binding to prostaglandin D2 receptor on human platelet membrane.

Assay [4] has as its target T1, Prostaglandin D2 receptor. Kind of assay: In vitro inhibition of cAMP formation evoked by prostaglandin D2 receptor in human platelets. It counts as functional.
The subject of assay [5] is Cavia porcellus. The experiment in a line: Inhibition of increase in specific airway resistance by antigen inhalation in conscious guinea pig at a dose of 10 mg/kg administered perorally 1 hr before challenge in asthma model. It counts as functional. Particulars: route oral.

For `O=C(O)CCC/C=C\C[C@@H]1[C@H]2CC[C@H](C2)[C@H]1NS(=O)(=O)c1ccc2oc3ccccc3c2c1`, the inhibition in vivo (usually the change of the read-out against control, counted positive when it falls) at 10 mg/kg in the assay with Cavia porcellus [1] is 75%.

As to `O=C(O)CCC/C=C\C[C@@H]1[C@H]2CC[C@H](C2)[C@H]1NS(=O)(=O)c1ccc2[nH]c3ccccc3c2c1`, in the assay with Cavia porcellus [2], the inhibition in vivo at 1 mg/kg is -9%. The IC50 in assay [3] and in assay [4] was 0.022 µM in each case.

With `O=C(O)CCC/C=C\C[C@@H]1[C@H]2CC[C@H](C2)[C@H]1NS(=O)(=O)c1ccc2cc(-c3ccc(O)cc3)[nH]c2c1`, the inhibition in vivo at 1 mg/kg with Cavia porcellus [2] stood at 42%. Moreover, the IC50 (in general, the midpoint of a concentration-inhibition curve) is 0.018 µM in assay [3] and 0.025 µM in assay [4].

For the molecule `COc1cc2c(cc1S(=O)(=O)N[C@@H]1[C@@H]3CC[C@@H](C3)[C@H]1C/C=C\CCCC(=O)O)oc1ccccc12`, the figures for the inhibition in vivo at 10 mg/kg in the assay with Cavia porcellus [5] and in the assay on Cavia porcellus [1] were 42% and 81%, respectively. Further, the Inhibition – broadly, the drop in the measured response relative to a control, in per cent – in the assay on Cavia porcellus [1] (10 mg/kg) is given as 82%. The IC50 in assay [3] was found to be 0.024 µM; in assay [4] it was 0.052 µM.

As to `COc1ccc(-c2cc3ccc(S(=O)(=O)N[C@@H]4[C@@H]5CC[C@@H](C5)[C@H]4C/C=C\CCCC(=O)O)cc3[nH]2)cc1`, the inhibition in vivo at 1 mg/kg in the assay with Cavia porcellus [2] is 40%. Moreover, the IC50 came to 0.015 µM in assay [3] and 0.045 µM in assay [4].

As to `O=C(O)CCC/C=C\C[C@@H]1[C@H]2CC[C@H](C2)[C@H]1NS(=O)(=O)c1ccc2sc3ccccc3c2c1`, the inhibition in vivo at 1 mg/kg with Cavia porcellus [2] amounted to 31%. Also, the half-inhibitory concentration (IC50) is 0.064 µM in assay [3] and 0.18 µM in assay [4].

For the molecule `CCOc1cc2c(cc1S(=O)(=O)N[C@@H]1[C@@H]3CC[C@@H](C3)[C@H]1C/C=C\CCCC(=O)O)oc1ccccc12`, in the assay on Cavia porcellus [1], the inhibition in vivo at 10 mg/kg was determined as 53%. Besides, the half-inhibitory concentration (IC50) amounted to 0.032 µM in assay [3] and 0.034 µM in assay [4].

As to `COc1ccc(-c2ccc(S(=O)(=O)N[C@@H]3[C@@H]4CC[C@@H](C4)[C@H]3C/C=C\CCCC(=O)O)cc2)cc1`, the results for the IC50 in assay [3] and in assay [4] were 0.45 µM and 0.2 µM, respectively.

As for `O=C(O)CCC/C=C\C[C@@H]1[C@H]2CC[C@H](C2)[C@H]1NS(=O)(=O)Cc1ccc(-c2ccccc2)cc1`, the values for the IC50 in assay [3] and in assay [4] were 8.6 µM and more than 1 µM, respectively.
